Source: patent publication US20040254094A1, “Suppression of cyclin kinase activity for prevention and treatment of infections” (priority 2000, published 2004)
Like-named read-outs stand apart in the source and are kept apart here.

Key:
CDK1/cyclin B = conditions: cited from earlier work
Human Cytomegalovirus = assay: Infectious HCMV yield by plaque assay from infected density-arrested LU cells; type: cell-based, Human cytomegalovirus strain AD169; conditions: for inhibition at 3.3 µM / inhibition at 10 µM / inhibition at 33 µM / inhibition at 100 µM: Human betaherpesvirus 5, 96 h
[1] = Tolerated dose in animals; type: in vivo; conditions: printed 'tolerated by rate'
Description: The preferred dosage of CDK inhibitor in a parenteral administration may vary, depending upon the extent of the virus infection, the severity of the symptoms associated with the infection and patient age, weight and medical history. The number of administrations of the parenteral composition of the CDK inhibitor will also vary according to the response of the individual patient to the treatment. In one exemplary application, the dosage of CDK inhibitor may vary with the type of disease and the route of administration. Further studies with animal models of infection will completely define projected doses. […] Weaker CDK2 inhibitors will be needed at higher concentrations, and stronger, at lower.

non-infected LU cells = assay: Hematoxylin and eosin staining of non-infected LU cells; type: cell-based, human; conditions: 15 μM for 96 hr
HCMV-infected LU cells = assay: Hematoxylin and eosin staining of HCMV-infected LU cells
HCMV [2] = assay: HCMV DNA abundance by slot blot hybridization in infected density-arrested LU cells; type: cell-based, Human cytomegalovirus strain AD169; conditions: 72 hr post-infection
HCMV [3] = assay: Viral late antigen pp28 expression by immunofluorescence in HCMV-infected LU cells; type: cell-based, Human cytomegalovirus; conditions: between 24 and 96 hr after infection in the presence of PAA
Method: Cells were cultured on sterile glass coverslips. The cells were washed three times in PBS and fixed in acetone:methanol (1:1) at −20° C. for 10 min. The permeabilized cells were incubated with primary antibody diluted in PBS for 1 hr at 37° C. in a humidified chamber. […] The excess conjugate was removed by washing the cells in PBS for 30 min. After drying, the cells were mounted in PBS/glycerol (1:1) and examined with the aid of a Zeiss Photomicroscope III using a 40/1.0 Neofluar lens. Images were photographed on slide film.

[4] = test system: HCMV-infected subconfluent LU cells; assay: Cell cycle distribution (DNA content, flow cytometry) following HCMV infection of subconfluent LU cells; conditions: for Percent cells in phase G0/G1 / Percent cells in phase G2/M / Percent cells in phase S: HCMV 5 PFU/cell + PAA 100 μg/ml, mean (SD)
Method: The DNA content of serum-arrested, HCMV-infected, subconfluent LU cells was analyzed by flow cytometry to determine to what extent productively infected cells initiate DNA synthesis.
Next, the DNA content of LU cells as a function of time after HCMV infection of subconfluent cells in the presence of PAA was analyzed.

LU cells = conditions: within 24 hr after serum in the presence of PAA (about 68% without inhibitor)
Description: The specificity of PAA was confirmed by measuring cellular DNA content after serum stimulation of quiescent LU cells in the presence and absence of PAA.

human lung fibroblasts = conditions: 100 μg/ml (0.75 mM); cited from earlier work
[5] = read-out: Percent inhibition of HCMV infectious yields, 3.3 μM, harvested 96 hrs
[6] = read-out: Percent inhibition of HCMV infectious yields, 10 μM (third line of each group), harvested 96 hrs
[7] = read-out: Percent inhibition of HCMV infectious yields, 10 μM, harvested 96 hrs
[8] = read-out: Percent inhibition of HCMV infectious yields, 33 μM, harvested 96 hrs
[9] = read-out: Percent inhibition of HCMV infectious yields, 100 μM, harvested 96 hrs
[10] = 10 μM (third line of each group), harvested 96 hrs
[11] = 3.3 μM, harvested 96 hrs, read-out: Percent inhibition of HCMV infectious yields
[12] = 10 μM (third line of each group), harvested 96 hrs, read-out: Percent inhibition of HCMV infectious yields
[13] = 10 μM, harvested 96 hrs, read-out: Percent inhibition of HCMV infectious yields
[14] = 33 μM, harvested 96 hrs, read-out: Percent inhibition of HCMV infectious yields
[15] = 100 μM, harvested 96 hrs, read-out: Percent inhibition of HCMV infectious yields

Compound: CN[C@@H]1C[C@H]2O[C@@](C)([C@@H]1OC)n1c3ccccc3c3c4c(c5c6ccccc6n2c5c31)C(=O)NC4 [Staurosporine]
- IC50 (CDK1/cyclin B): 0.004 µM

Compound: COc1ccc(CNc2nc(N(CCO)CCO)nc3c2ncn3C(C)C)cc1 [CVT-313]
- IC50 (CDK1/cyclin B): 4.2 µM

Compound: O=C1Cc2c([nH]c3ccc([N+](=O)[O-])cc23)-c2ccccc2N1 [Alsterpaullone]
- inhibition at 3.3 µM (Human Cytomegalovirus; [5]): 100%
- inhibition at 10 µM (Human Cytomegalovirus; [6]): 100%
- inhibition at 10 µM (Human Cytomegalovirus; [7]): 100%
- inhibition at 33 µM (Human Cytomegalovirus; [8]): 100%
- inhibition at 100 µM (Human Cytomegalovirus; [9]): 100%

Compound: Cc1ccc(C(=O)Nc2ccc(S(=O)(=O)O)c3cc(S(=O)(=O)O)cc(S(=O)(=O)O)c23)cc1NC(=O)c1cccc(NC(=O)Nc2cccc(C(=O)Nc3cc(C(=O)Nc4ccc(S(=O)(=O)O)c5cc(S(=O)(=O)O)cc(S(=O)(=O)O)c45)ccc3C)c2)c1 [Suramin]
- IC50 (CDK1/cyclin B): 4 µM

Compound: N#Cc1cn([C@@H]2O[C@H](CO)[C@@H](O)[C@H]2O)c2ncnc(N)c12 [Toyocamycin]
- IC50 (CDK1/cyclin B): 0.88 µM

Compound: O=C1CCCO1 [γ-Butyrolactone]
- IC50 (CDK1/cyclin B): 0.6 µM

Compound: Indirubin-3′-monoxime
- Percent inhibition of HCMV infectious yields (Human Cytomegalovirus; 3.3 μM, harvested 96 hrs): 56.69%
- Percent inhibition of HCMV infectious yields (Human Cytomegalovirus; [10]): 99.9988%
- Percent inhibition of HCMV infectious yields (Human Cytomegalovirus; 10 μM, harvested 96 hrs): 26.67%
- Percent inhibition of HCMV infectious yields (Human Cytomegalovirus; 33 μM, harvested 96 hrs): 99.9976%
- Percent inhibition of HCMV infectious yields (Human Cytomegalovirus; 100 μM, harvested 96 hrs): 99.9992%
- IC50 (CDK1/cyclin B): 0.18 µM

Compound: CC[C@H](CO)Nc1nc(NCc2ccccc2)c2ncn(C(C)C)c2n1 [Roscovitine]
- tolerated dose [1]: 3 µg/kg
- morphological changes of non-infected cells (non-infected LU cells): no morphological changes
- morphology of HCMV-infected cells (HCMV-infected LU cells; 5 μM, 96 hr post-infection): rounded and appeared to be undergoing cell death
- morphology of HCMV-infected cells (HCMV-infected LU cells; 15 μM, 96 hr after infection): clearly dying or dead
- HCMV DNA abundance reduced by (HCMV [2]; 1 μM): ~50%
- viral DNA abundance reduced by (HCMV [2]; 10 μM): > 90%
- Infectious HCMV yields reduced by (Human Cytomegalovirus; 2.5 μM, 96 hr post-infection): > 90%
- inhibition at 3.3 µM (Human Cytomegalovirus; [5]): 90.7%
- inhibition at 10 µM (Human Cytomegalovirus; [6]): 96.5%
- inhibition at 10 µM (Human Cytomegalovirus; [7]): 91.3%
- inhibition at 33 µM (Human Cytomegalovirus; [8]): 100%
- inhibition at 100 µM (Human Cytomegalovirus; [9]): > 100%
- inhibition at 10 µM (Human Cytomegalovirus; read-out: inhibition of infectious HCMV yields, 10 μM, 96 hr post-infection): > 99.9%

Compound: CN1CC[C@H](c2c(O)cc(O)c3c(=O)cc(-c4ccccc4Cl)oc23)[C@H](O)C1 [Flavopiridol]
- inhibition at 3.3 µM (Human Cytomegalovirus; [11]): 100%
- inhibition at 10 µM (Human Cytomegalovirus; [12]): 100%
- inhibition at 10 µM (Human Cytomegalovirus; [13]): 100%
- inhibition at 33 µM (Human Cytomegalovirus; [14]): 100%
- inhibition at 100 µM (Human Cytomegalovirus; [15]): 100%

Compound: CC(C)=CCNc1ncnc2nc[nH]c12 [Isopentenyladenine]
- IC50 (CDK1/cyclin B): 55 µM

Compound: Cc1c2ccncc2c(C)c2c1[nH]c1ccc(O)cc12 [9-hydroxyellipticine]
- IC50 (CDK1/cyclin B): 1 µM

Compound: CN(C)c1ncnc2nc[nH]c12 [6-Dimethylaminopurine]
- IC50 (CDK1/cyclin B): 120 µM

Compound: OCCCNc1cc(-c2ccnc(Nc3cccc(Cl)c3)n2)ccn1 [CGP60474]
- IC50 (CDK1/cyclin B): 0.02 µM

Compound: CC(C)[C@H](CO)Nc1nc(Nc2cc(N)cc(Cl)c2)c2ncn(C(C)C)c2n1 [NG97, aminopurvalanol]
- inhibition at 3.3 µM (Human Cytomegalovirus; [11]): 99.9%
- inhibition at 10 µM (Human Cytomegalovirus; [12]): 100%
- inhibition at 10 µM (Human Cytomegalovirus; [13]): 51.3%
- inhibition at 33 µM (Human Cytomegalovirus; [14]): 100%
- inhibition at 100 µM (Human Cytomegalovirus; [15]): 100%

Compound: O=C(O)CP(=O)(O)O [PAA, phosphonoacetic acid]
- pp28 expression (HCMV [3]): could not be detected
- Percent cells in phase G0/G1 ([4]; 0 hrs after treatment): 93.3 (1.2) %
- Percent cells in phase G2/M ([4]; 0 hrs after treatment): 5.1 (1.0) %
- Percent cells in phase S ([4]; 0 hrs after treatment): 1.6 (0.2) %
- Percent cells in phase G0/G1 ([4]; 24 hrs): 97.2 (0.4) %
- Percent cells in phase G2/M ([4]; 24 hrs): 1.9 (0.3) %
- Percent cells in phase S ([4]; 24 hrs): 0.9 (0.1) %
- Percent cells in phase G0/G1 ([4]; 48 hrs): 97.1 (0.8) %
- Percent cells in phase G2/M ([4]; 48 hrs): 1.3 (0.4) %
- Percent cells in phase S ([4]; 48 hrs): 1.5 (0.4) %
- Percent cells in phase G0/G1 ([4]; 72 hrs): 97.2 (0.3) %
- Percent cells in phase G2/M ([4]; 72 hrs): 0.9 (0.1) %
- Percent cells in phase S ([4]; 72 hrs): 1.9 (0.3) %
- DNA content of LU cells after HCMV infection in the presence of PAA ([4]; subconfluent cells): no detectable increase in DNA content
- cells in S, G2, or M phase (LU cells): about 57%
- viral DNA replication (human lung fibroblasts): blocks viral DNA replication

Compound: Purvalanol A&B
- IC50 (CDK1/cyclin B): 0.004 µM

Compound: CCCCc1c(-c2ccc(O)cc2)[nH]c2nccnc12 [RP107]
- Percent inhibition of HCMV infectious yields (Human Cytomegalovirus; 3.3 μM, harvested 96 hrs): 96.67%
- Percent inhibition of HCMV infectious yields (Human Cytomegalovirus; [10]): 99.98%
- Percent inhibition of HCMV infectious yields (Human Cytomegalovirus; 10 μM, harvested 96 hrs): 74.67%
- Percent inhibition of HCMV infectious yields (Human Cytomegalovirus; 33 μM, harvested 96 hrs): 99.9968%
- Percent inhibition of HCMV infectious yields (Human Cytomegalovirus; 100 μM, harvested 96 hrs): 99.9984%
